According to ChEMBL document CHEMBL3390848, “Affinity selection and sequence-activity relationships of HIV-1 membrane fusion inhibitors directed at the drug-resistant variants” (Medchemcomm, 2010):
Residues, ends and D or L forms follow the SMILES beside them.

Columns and labels:
[1] = test system: Human immunodeficiency virus 1; assay: Antiviral activity against HIV1 NL4-3 harboring gp41 D36G mutant infected in human HeLa cells expressing CD4-LTR-beta-gal assessed as inhibition of viral replication after 48 hrs by MAGI assay; type: functional, organism-based
[2] = test system: Human immunodeficiency virus 1; assay: Thermal stability of HIV1 envelope glycoprotein gp41 His-tagged N-terminal heptad repeat N36-drug complex assessed as thermal unfolding transition state by measuring molar ellipticity at 4 to 90 degC by circular dichroic spectra analysis
[3] = test system: Human immunodeficiency virus 1; assay: Binding affinity to HIV1 His-tagged N-terminal heptad repeat of envelope glycoprotein gp41 assessed as recovery of N36-drug complex after 2 hrs by LC-MS analysis; design: concentration or dose not given beside the values

Compound: CC[C@H](C)[C@H](NC(=O)[C@H](CC(C)C)NC(=O)[C@H](CCC(=O)O)NC(=O)[C@H](CCC(=O)O)NC(=O)[C@@H](NC(=O)[C@H](CCCCN)NC(=O)[C@H](CCCCN)NC(=O)[C@@H](NC(=O)[C@H](Cc1ccc(O)cc1)NC(=O)[C@H](CCC(=O)O)NC(=O)[C@H](CCC(=O)O)NC(=O)[C@@H](NC(=O)[C@H](CCCCN)NC(=O)[C@H](CCCCN)NC(=O)[C@H](CC(=O)O)NC(=O)[C@H](Cc1c[nH]c2ccccc12)NC(=O)[C@H](CCC(=O)O)NC(=O)[C@H](CCC(=O)O)NC(=O)[C@H](Cc1c[nH]c2ccccc12)NC(C)=O)[C@@H](C)CC)[C@@H](C)O)[C@@H](C)CC)C(=O)N[C@@H](CCCCN)C(=O)N[C@@H](CCCCN)C(=O)N[C@@H](CO)C(=O)N[C@@H](CCC(=O)O)C(=O)N[C@@H](CCC(=O)O)C(=O)N[C@@H](CCSC)C(=O)N[C@@H](CCC(N)=O)C(=O)N[C@@H](CCCCN)C(=O)N[C@@H](CCCCN)C(=O)N[C@@H](CC(N)=O)C(=O)N[C@@H](CCC(=O)O)C(=O)N[C@@H](CCC(=O)O)C(=O)N[C@@H](CCC(=O)O)C(=O)N[C@@H](CC(C)C)C(=O)N[C@@H](CCCCN)C(=O)N[C@@H](CCCCN)C(N)=O (Ac-WEEWDKKIEEYTKKIEELIKKSEEMQKKNEEELKK-NH2)
- EC50 [1]: 2 nM
- Tm [2]: 80.2 °C
- Activity [3]: 6%

Compound: CC[C@H](C)[C@H](NC(=O)[C@H](CC(C)C)NC(=O)[C@H](CCC(=O)O)NC(=O)[C@H](CCC(=O)O)NC(=O)[C@@H](NC(=O)[C@H](CCCCN)NC(=O)[C@H](CCCCN)NC(=O)[C@@H](NC(=O)[C@H](Cc1ccc(O)cc1)NC(=O)[C@H](CCC(=O)O)NC(=O)[C@H](CCC(=O)O)NC(=O)[C@@H](NC(=O)[C@H](CCCCN)NC(=O)[C@H](CCCCN)NC(=O)[C@H](CC(=O)O)NC(=O)[C@H](Cc1c[nH]c2ccccc12)NC(=O)[C@H](CCC(=O)O)NC(=O)[C@H](CCC(=O)O)NC(=O)[C@H](Cc1c[nH]c2ccccc12)NC(C)=O)[C@@H](C)CC)[C@@H](C)O)[C@@H](C)CC)C(=O)N[C@@H](CCCCN)C(=O)N[C@@H](CCCCN)C(=O)N[C@@H](CO)C(=O)N[C@@H](CCC(=O)O)C(=O)N[C@@H](CCC(=O)O)C(=O)N[C@@H](CC(N)=O)C(=O)N[C@@H](CCC(N)=O)C(=O)N[C@@H](CCCCN)C(=O)N[C@@H](CCCCN)C(=O)N[C@@H](CC(N)=O)C(=O)N[C@@H](CCC(=O)O)C(=O)N[C@@H](CCC(=O)O)C(=O)N[C@@H](CCC(=O)O)C(=O)N[C@@H](CC(C)C)C(=O)N[C@@H](CCCCN)C(=O)N[C@@H](CCCCN)C(N)=O (Ac-WEEWDKKIEEYTKKIEELIKKSEENQKKNEEELKK-NH2)
- EC50 [1]: 2.5 nM
- Tm [2]: 73.4 °C
- Activity [3]: 4%

Compound: CC[C@H](C)[C@H](NC(=O)[C@H](CC(C)C)NC(=O)[C@H](CCC(=O)O)NC(=O)[C@H](CCC(=O)O)NC(=O)[C@@H](NC(=O)[C@H](CCCCN)NC(=O)[C@H](CCCCN)NC(=O)[C@@H](NC(=O)[C@H](Cc1ccc(O)cc1)NC(=O)[C@H](CCC(=O)O)NC(=O)[C@H](CCC(=O)O)NC(=O)[C@@H](NC(=O)[C@H](CCCCN)NC(=O)[C@H](CCCCN)NC(=O)[C@H](CC(=O)O)NC(=O)[C@H](Cc1c[nH]c2ccccc12)NC(=O)[C@H](CCC(=O)O)NC(=O)[C@H](CCC(=O)O)NC(=O)[C@H](Cc1c[nH]c2ccccc12)NC(C)=O)[C@@H](C)CC)[C@@H](C)O)[C@@H](C)CC)C(=O)N[C@@H](CCCCN)C(=O)N[C@@H](CCCCN)C(=O)N[C@@H](CO)C(=O)N[C@@H](CCC(=O)O)C(=O)N[C@@H](CCC(=O)O)C(=O)N1CCC[C@H]1C(=O)N[C@@H](CCC(N)=O)C(=O)N[C@@H](CCCCN)C(=O)N[C@@H](CCCCN)C(=O)N[C@@H](CC(N)=O)C(=O)N[C@@H](CCC(=O)O)C(=O)N[C@@H](CCC(=O)O)C(=O)N[C@@H](CCC(=O)O)C(=O)N[C@@H](CC(C)C)C(=O)N[C@@H](CCCCN)C(=O)N[C@@H](CCCCN)C(N)=O (Ac-WEEWDKKIEEYTKKIEELIKKSEEPQKKNEEELKK-NH2)
- EC50 [1]: 58 nM
- Tm [2]: 60.2 °C
- Activity [3]: 0%

Compound: CC[C@H](C)[C@H](NC(=O)[C@H](CC(C)C)NC(=O)[C@H](CCC(=O)O)NC(=O)[C@H](CCC(=O)O)NC(=O)[C@@H](NC(=O)[C@H](CCCCN)NC(=O)[C@H](CCCCN)NC(=O)[C@@H](NC(=O)[C@H](Cc1ccc(O)cc1)NC(=O)[C@H](CCC(=O)O)NC(=O)[C@H](CCC(=O)O)NC(=O)[C@@H](NC(=O)[C@H](CCCCN)NC(=O)[C@H](CCCCN)NC(=O)[C@H](CC(=O)O)NC(=O)[C@H](Cc1c[nH]c2ccccc12)NC(=O)[C@H](CCC(=O)O)NC(=O)[C@H](CCC(=O)O)NC(=O)[C@H](Cc1c[nH]c2ccccc12)NC(C)=O)[C@@H](C)CC)[C@@H](C)O)[C@@H](C)CC)C(=O)N[C@@H](CCCCN)C(=O)N[C@@H](CCCCN)C(=O)N[C@@H](CO)C(=O)N[C@@H](CCC(=O)O)C(=O)N[C@@H](CCC(=O)O)C(=O)N[C@@H](CCCNC(=N)N)C(=O)N[C@@H](CCC(N)=O)C(=O)N[C@@H](CCCCN)C(=O)N[C@@H](CCCCN)C(=O)N[C@@H](CC(N)=O)C(=O)N[C@@H](CCC(=O)O)C(=O)N[C@@H](CCC(=O)O)C(=O)N[C@@H](CCC(=O)O)C(=O)N[C@@H](CC(C)C)C(=O)N[C@@H](CCCCN)C(=O)N[C@@H](CCCCN)C(N)=O (Ac-WEEWDKKIEEYTKKIEELIKKSEERQKKNEEELKK-NH2)
- EC50 [1]: 2.5 nM
- Tm [2]: 71.5 °C
- Activity [3]: 7.6%

Compound: CC[C@H](C)[C@H](NC(=O)[C@H](CC(C)C)NC(=O)[C@H](CCC(=O)O)NC(=O)[C@H](CCC(=O)O)NC(=O)[C@@H](NC(=O)[C@H](CCCCN)NC(=O)[C@H](CCCCN)NC(=O)[C@@H](NC(=O)[C@H](Cc1ccc(O)cc1)NC(=O)[C@H](CCC(=O)O)NC(=O)[C@H](CCC(=O)O)NC(=O)[C@@H](NC(=O)[C@H](CCCCN)NC(=O)[C@H](CCCCN)NC(=O)[C@H](CC(=O)O)NC(=O)[C@H](Cc1c[nH]c2ccccc12)NC(=O)[C@H](CCC(=O)O)NC(=O)[C@H](CCC(=O)O)NC(=O)[C@H](Cc1c[nH]c2ccccc12)NC(C)=O)[C@@H](C)CC)[C@@H](C)O)[C@@H](C)CC)C(=O)N[C@@H](CCCCN)C(=O)N[C@@H](CCCCN)C(=O)N[C@@H](CO)C(=O)N[C@@H](CCC(=O)O)C(=O)N[C@@H](CCC(=O)O)C(=O)N[C@@H](CO)C(=O)N[C@@H](CCC(N)=O)C(=O)N[C@@H](CCCCN)C(=O)N[C@@H](CCCCN)C(=O)N[C@@H](CC(N)=O)C(=O)N[C@@H](CCC(=O)O)C(=O)N[C@@H](CCC(=O)O)C(=O)N[C@@H](CCC(=O)O)C(=O)N[C@@H](CC(C)C)C(=O)N[C@@H](CCCCN)C(=O)N[C@@H](CCCCN)C(N)=O (Ac-WEEWDKKIEEYTKKIEELIKKSEESQKKNEEELKK-NH2)
- EC50 [1]: 2.5 nM
- Tm [2]: 72.4 °C
- Activity [3]: 4%

Compound: CC[C@H](C)[C@H](NC(=O)[C@H](CC(C)C)NC(=O)[C@H](CCC(=O)O)NC(=O)[C@H](CCC(=O)O)NC(=O)[C@@H](NC(=O)[C@H](CCCCN)NC(=O)[C@H](CCCCN)NC(=O)[C@@H](NC(=O)[C@H](Cc1ccc(O)cc1)NC(=O)[C@H](CCC(=O)O)NC(=O)[C@H](CCC(=O)O)NC(=O)[C@@H](NC(=O)[C@H](CCCCN)NC(=O)[C@H](CCCCN)NC(=O)[C@H](CC(=O)O)NC(=O)[C@H](Cc1c[nH]c2ccccc12)NC(=O)[C@H](CCC(=O)O)NC(=O)[C@H](CCC(=O)O)NC(=O)[C@H](Cc1c[nH]c2ccccc12)NC(C)=O)[C@@H](C)CC)[C@@H](C)O)[C@@H](C)CC)C(=O)N[C@@H](CCCCN)C(=O)N[C@@H](CCCCN)C(=O)N[C@@H](CO)C(=O)N[C@@H](CCC(=O)O)C(=O)N[C@@H](CCC(=O)O)C(=O)N[C@H](C(=O)N[C@@H](CCC(N)=O)C(=O)N[C@@H](CCCCN)C(=O)N[C@@H](CCCCN)C(=O)N[C@@H](CC(N)=O)C(=O)N[C@@H](CCC(=O)O)C(=O)N[C@@H](CCC(=O)O)C(=O)N[C@@H](CCC(=O)O)C(=O)N[C@@H](CC(C)C)C(=O)N[C@@H](CCCCN)C(=O)N[C@@H](CCCCN)C(N)=O)[C@@H](C)O (Ac-WEEWDKKIEEYTKKIEELIKKSEETQKKNEEELKK-NH2)
- EC50 [1]: 3.2 nM
- Tm [2]: 76.7 °C
- Activity [3]: 7.3%

Compound: CC[C@H](C)[C@H](NC(=O)[C@H](CC(C)C)NC(=O)[C@H](CCC(=O)O)NC(=O)[C@H](CCC(=O)O)NC(=O)[C@@H](NC(=O)[C@H](CCCCN)NC(=O)[C@H](CCCCN)NC(=O)[C@@H](NC(=O)[C@H](Cc1ccc(O)cc1)NC(=O)[C@H](CCC(=O)O)NC(=O)[C@H](CCC(=O)O)NC(=O)[C@@H](NC(=O)[C@H](CCCCN)NC(=O)[C@H](CCCCN)NC(=O)[C@H](CC(=O)O)NC(=O)[C@H](Cc1c[nH]c2ccccc12)NC(=O)[C@H](CCC(=O)O)NC(=O)[C@H](CCC(=O)O)NC(=O)[C@H](Cc1c[nH]c2ccccc12)NC(C)=O)[C@@H](C)CC)[C@@H](C)O)[C@@H](C)CC)C(=O)N[C@@H](CCCCN)C(=O)N[C@@H](CCCCN)C(=O)N[C@@H](CO)C(=O)N[C@@H](CCC(=O)O)C(=O)N[C@@H](CCC(=O)O)C(=O)N[C@H](C(=O)N[C@@H](CCC(N)=O)C(=O)N[C@@H](CCCCN)C(=O)N[C@@H](CCCCN)C(=O)N[C@@H](CC(N)=O)C(=O)N[C@@H](CCC(=O)O)C(=O)N[C@@H](CCC(=O)O)C(=O)N[C@@H](CCC(=O)O)C(=O)N[C@@H](CC(C)C)C(=O)N[C@@H](CCCCN)C(=O)N[C@@H](CCCCN)C(N)=O)C(C)C (Ac-WEEWDKKIEEYTKKIEELIKKSEEVQKKNEEELKK-NH2)
- EC50 [1]: 2.2 nM
- Tm [2]: 77.7 °C
- Activity [3]: 6.2%
